PubChem BioAssay (NCI)
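1) Cells in 96-well plates. 2) Compound, 48 h, 5 concentrations. 3) Linear interpolation between surrounding doses. 4) Unreached endpoint = highest concentration. GI50: concentration for 50% inhibition of growth. TGI marks complete inhibition of growth.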

Experiments:
Assay in all cases: NCI-60 cell line screen, 48 h
786-0 renal = system: 786-0 renal
A549 NSCLC = system: A549 NSCLC
HOP-92 NSCLC = system: HOP-92 NSCLC
OVCAR-3 ovarian = system: OVCAR-3 ovarian
SF-539 CNS = system: SF-539 CNS
SK-OV-3 ovarian = system: SK-OV-3 ovarian
SN12C renal = system: SN12C renal
SNB-19 CNS = system: SNB-19 CNS
UACC-62 melanoma = system: UACC-62 melanoma
UO-31 renal = system: UO-31 renal

SMILES	GI50 (786-0 renal)	TGI (786-0 renal)	GI50 (A549 NSCLC)	TGI (A549 NSCLC)	GI50 (HOP-92 NSCLC)	TGI (HOP-92 NSCLC)	GI50 (OVCAR-3 ovarian)	TGI (OVCAR-3 ovarian)	GI50 (SF-539 CNS)	TGI (SF-539 CNS)	GI50 (SK-OV-3 ovarian)	TGI (SK-OV-3 ovarian)	GI50 (SN12C renal)	TGI (SN12C renal)	GI50 (SNB-19 CNS)	TGI (SNB-19 CNS)	GI50 (UACC-62 melanoma)	TGI (UACC-62 melanoma)	GI50 (UO-31 renal)	TGI (UO-31 renal)
Fc1ccc(Nc2nc(NCCNc3ccnc4cc(Cl)ccc34)nc(N3CCOCC3)n2)cc1	3.35 µM	15.3 µM	10.5 µM	25.1 µM	1.03 µM	6.88 µM	11.9 µM	24.5 µM	3.79 µM	15.2 µM	11.9 µM	24.6 µM	11.6 µM	25 µM	12.4 µM	25.9 µM	2.65 µM	7.35 µM	3.52 µM	16.5 µM
C/C=C(/CCCCNCCCC)[Si](C)(C)C		25.5 µM		30.3 µM		20.9 µM		28.3 µM		28.4 µM		33.6 µM		30.5 µM		31.8 µM		32.7 µM		31.4 µM
CCN1C(=O)N(CC)C2C1NN=c1s/c(=C3\C(=O)N(C)c4ccccc43)c(=O)n12 (stereo not given)	1.94 µM	> 100 µM	1.83 µM	> 100 µM	0.685 µM	> 100 µM	0.382 µM	8.18 µM	0.545 µM	3.77 µM	6.03 µM	> 100 µM	2.89 µM	> 100 µM	2.89 µM	> 100 µM	0.431 µM	> 100 µM	1.28 µM	> 100 µM
CCSc1nc(COC(=O)NC)c(COC(=O)NC)n1C		> 100 µM		> 100 µM		> 90.6 µM		> 100 µM		> 100 µM		> 95 µM		> 100 µM		> 100 µM		51.2 µM		> 100 µM
CC(=O)NC(CCCN(Cc1ccccc1)C(=O)N(CCCl)N=O)C(=O)NCc1ccccc1 (stereo not given)		> 58.7 µM		> 100 µM		> 91.8 µM		> 100 µM		20.6 µM		> 100 µM		> 100 µM		> 100 µM		> 100 µM		> 100 µM
COc1cc(Oc2c(O)c(C)c(OC)c(C(C)=O)c2O)c(C(C)=O)c(O)c1C		> 100 µM		> 100 µM		> 100 µM		> 100 µM		> 100 µM		> 100 µM		> 100 µM		> 100 µM		> 100 µM		> 100 µM
CC(C)(Br)C(=O)/C=C/c1ccccc1		2.22 µM		56.7 µM		18 µM		25.4 µM		25.6 µM		> 83.1 µM		22.5 µM		78.3 µM		19 µM		3.68 µM
CCOC(=O)N1CCN(S(=O)(=O)c2oc(-c3ccc(Cl)cc3)nc2C#N)CC1	1.65 µM	3.24 µM	24.9 µM	> 100 µM	1.8 µM	3.75 µM	1.79 µM	3.38 µM	3.34 µM	10.5 µM	74.1 µM	> 100 µM	1.66 µM	3.23 µM	14.6 µM	50.7 µM	3.07 µM	12.7 µM	1.54 µM	2.88 µM
O=C1C(=O)N(C2C3CC4CC(C3)CC2C4)C(=O)C(=O)C1c1nc2ccccc2o1 (stereo not given)		> 100 µM		> 100 µM		> 100 µM		54 µM		> 100 µM		> 100 µM		> 100 µM		> 100 µM		> 100 µM		> 100 µM
C=CCc1ccc(O)c(-c2cc(C3Oc4c(-c5cc(CC=C)ccc5O)cc(O)cc4[C@@H]3CO)ccc2O)c1 (stereo not given in full)		> 100 µM		> 100 µM		64.9 µM		74.5 µM		56.3 µM		> 100 µM		> 100 µM		78.7 µM		89.1 µM		> 100 µM
Cc1ncc([N+](=O)[O-])n1CCNC(=O)CCCn1cnc([N+](=O)[O-])n1		> 100 µM		> 100 µM		> 100 µM		> 100 µM		> 100 µM		> 100 µM		> 55.9 µM		> 100 µM		> 100 µM		> 100 µM
CC1=CC(=O)C(C(C)=Nc2ccccc2Cl)C(=O)O1 (stereo not given)	> 100 µM	> 100 µM	> 100 µM	> 100 µM	94.4 µM	> 100 µM	> 100 µM	> 100 µM	> 100 µM	> 100 µM	> 100 µM	> 100 µM	> 100 µM	> 100 µM	> 100 µM	> 100 µM	> 100 µM	> 100 µM	> 100 µM	> 100 µM
COc1ccc(/C=C2\CCCC3=C2NC(C)=NC3c2ccc(OC)c(OC)c2)cc1OC (stereo not given)	33.7 µM	> 100 µM	53.7 µM	> 100 µM	18.9 µM	92.6 µM	5.47 µM	> 100 µM	27.5 µM	> 100 µM	19.2 µM	> 100 µM	63.9 µM	> 100 µM	67.1 µM	> 100 µM	12.9 µM	> 100 µM	31.1 µM	> 100 µM
Nc1nc(OCc2ccccc2)nc2[nH]ncc12	18.7 µM	44.4 µM	27.7 µM	> 100 µM	> 100 µM	> 100 µM	11.5 µM	25.2 µM	23.3 µM	47.7 µM	18.6 µM	49.8 µM	13.9 µM	28.5 µM	26.3 µM	83.2 µM	14.4 µM	32.1 µM	20 µM	> 100 µM
CC1CC2(CC[C@@H]1O)OCCO2 (stereo not given in full)		> 100 µM		> 100 µM		> 100 µM		> 100 µM		> 100 µM		> 100 µM		> 100 µM		> 100 µM		> 100 µM		> 100 µM
COC(=O)[C@@H]1CCCN1C(=O)[C@@H]1CCCN1C(=O)[C@@H](Cc1c[nH]c2ccccc12)NC(=S)Nc1cc(C(F)(F)F)cc(C(F)(F)F)c1	5.95 µM	20.1 µM	5.31 µM	> 100 µM	1.46 µM	5.26 µM	3.8 µM	52.2 µM	7.72 µM	67.4 µM	47.2 µM	> 100 µM	6.81 µM	> 100 µM	16.2 µM	> 100 µM	3.68 µM	20.4 µM	5.44 µM	> 100 µM
O=C1c2ccccc2C(=O)C1C(c1ccc([N+](=O)[O-])cc1)C1C(=O)c2ccccc2C1=O		> 100 µM		> 100 µM		> 100 µM		34.1 µM		> 100 µM		> 100 µM		> 100 µM		> 100 µM		> 100 µM		> 100 µM
O=[N+]([O-])c1ccc(CS(=O)Cc2ccccc2)cc1 (stereo not given)		> 100 µM		> 100 µM		> 100 µM		> 100 µM		> 100 µM		> 100 µM		> 100 µM		> 100 µM		> 100 µM		> 100 µM
C=C(C)CCC(C)N1CCC(N2CCC(C(=O)NCCc3ccccc3)CC2)CC1 (stereo not given)	> 100 µM	> 100 µM	32.2 µM	> 100 µM	13.4 µM	62 µM	53.7 µM	> 100 µM	10.5 µM	23.8 µM	21.2 µM	77.3 µM	55.5 µM	> 100 µM	58.9 µM	> 100 µM	13.7 µM	28.8 µM	11 µM	25.3 µM
C=C[C@]1(C)C=C2C(=O)[C@@]3(O)OC[C@@]4(CCCC(C)(C)C43O)C2(O)C(O)C1 (stereo not given in full)	2.21 µM	5.51 µM	14.5 µM	30.8 µM	5.13 µM	18.5 µM	2.52 µM	5.9 µM	5.15 µM	15.4 µM	23 µM	69.6 µM	8.4 µM	23.2 µM	23.3 µM	> 69 µM	7.77 µM	21.5 µM	1.34 µM	3 µM
O=C(Cc1ccccc1)N/N=C(\C1=Nc2ccc([N+](=O)[O-])cc2NC1O)C(O)c1ccc([N+](=O)[O-])cc1 (stereo not given)		> 100 µM		> 100 µM		> 100 µM		> 100 µM		> 100 µM		> 100 µM		> 100 µM		> 100 µM		> 100 µM		> 100 µM
Clc1ccc2nc(Oc3ccccc3)cnc2c1	> 100 µM	> 100 µM	> 100 µM	> 100 µM	14 µM	> 100 µM	> 100 µM	> 100 µM	> 100 µM	> 100 µM	> 100 µM	> 100 µM	> 100 µM	> 100 µM	> 100 µM	> 100 µM	> 100 µM	> 100 µM	> 100 µM	> 100 µM
O=C(Nc1cc(Cl)c(Cl)cc1Cl)C(=O)C(C(=O)c1ccc(Cl)c(Cl)c1)C1OC(=O)c2ccccc21 (stereo not given)		27.3 µM		> 100 µM		31.4 µM		32.6 µM		7.89 µM		> 100 µM		52.3 µM		49.8 µM		33.5 µM		30.6 µM
